According to ChEMBL document CHEMBL4052716, “Discovery and development of a novel class of phenoxyacetyl amides as highly potent TRPM8 agonists for use as cooling agents” (Bioorg Med Chem Lett, 2017):
Values after ≈ are worked out from the molar mass of the structure shown.

Assays:
[1] = biological target: T1, Transient receptor potential cation channel subfamily M member 8 (Homo sapiens, UniProt Q7Z2W7); experiment: Agonist activity at human TRPM8 expressed in HEK293 cells assessed as increase in intracellular calcium level after 15 mins by Fluo-3-AM dye-based fluorescence assay; type: cell-based
Target sequence in this assay (Q7Z2W7 whole entry): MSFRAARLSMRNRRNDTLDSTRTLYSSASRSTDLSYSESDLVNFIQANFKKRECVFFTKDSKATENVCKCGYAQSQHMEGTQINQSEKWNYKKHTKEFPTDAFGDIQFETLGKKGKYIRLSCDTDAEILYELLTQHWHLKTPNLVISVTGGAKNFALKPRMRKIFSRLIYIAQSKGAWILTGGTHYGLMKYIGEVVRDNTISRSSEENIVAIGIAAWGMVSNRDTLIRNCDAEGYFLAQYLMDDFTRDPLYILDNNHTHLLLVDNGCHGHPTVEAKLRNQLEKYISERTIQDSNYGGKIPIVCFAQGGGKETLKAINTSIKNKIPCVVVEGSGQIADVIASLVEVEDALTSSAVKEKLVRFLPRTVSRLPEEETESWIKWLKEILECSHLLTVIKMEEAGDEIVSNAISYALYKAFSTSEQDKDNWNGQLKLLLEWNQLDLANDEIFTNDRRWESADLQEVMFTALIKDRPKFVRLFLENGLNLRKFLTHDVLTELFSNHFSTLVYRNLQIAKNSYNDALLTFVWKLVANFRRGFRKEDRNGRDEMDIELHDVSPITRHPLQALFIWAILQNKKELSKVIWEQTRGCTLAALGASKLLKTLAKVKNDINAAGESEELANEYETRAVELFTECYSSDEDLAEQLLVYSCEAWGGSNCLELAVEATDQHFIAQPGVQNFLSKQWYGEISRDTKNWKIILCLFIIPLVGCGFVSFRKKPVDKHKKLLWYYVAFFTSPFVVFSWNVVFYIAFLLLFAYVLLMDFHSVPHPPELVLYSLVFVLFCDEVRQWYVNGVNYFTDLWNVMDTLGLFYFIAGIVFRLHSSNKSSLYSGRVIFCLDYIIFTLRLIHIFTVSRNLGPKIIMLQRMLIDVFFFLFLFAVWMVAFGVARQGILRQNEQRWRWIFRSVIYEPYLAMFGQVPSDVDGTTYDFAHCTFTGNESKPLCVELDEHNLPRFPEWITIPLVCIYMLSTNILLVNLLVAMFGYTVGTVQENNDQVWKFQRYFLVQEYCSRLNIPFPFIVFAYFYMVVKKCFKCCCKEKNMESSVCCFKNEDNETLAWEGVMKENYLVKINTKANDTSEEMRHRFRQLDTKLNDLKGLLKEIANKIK

[2] = biological target: T1, Transient receptor potential cation channel subfamily M member 8; experiment: Potency index, ratio of WS-3 EC50 to compound EC50 for human TRPM8 receptor
Target sequence in this assay (Q7Z2W7 whole entry, looked up): as the sequence (Q7Z2W7 whole entry) above

[3] = test system: Homo sapiens; experiment: In vivo agonist activity at human TRPM8 in trained human subjects assessed as concentration required to deliver cooling sensation equivalent to 45 uM WS-3 by measuring cooling intensity; type: functional
[4] = Permeability of the compound assessed as drug transport by PAMPA; type: physicochemical
[5] = Thermodynamic solubility of the compound in pH 7.1 phosphoric buffer; type: physicochemical; conditions: read-out: Therm_solubility

| Structure (SMILES) | EC50 ([1]; read-out: EC50) | Ratio EC50 [2] | Activity [3] | EC50 ([1]; hek293) | Drug transport [4] | solubility thermodynamic [5] |
| --- | --- | --- | --- | --- | --- | --- |
| CCN(Cc1cccs1)C(=O)c1cc2cc(C)ccc2[nH]1 | 2000 nM | 2 | – | – | – | – |
| CCN(Cc1cccs1)C(=O)/C=C/c1ccc(C)cc1 | 2 nM | 2340 | 3 µM | – | – | – |
| Cc1ccc(OCC(=O)NCc2cccs2)cc1 | 25000 nM | 0.1 | – | – | – | – |
| Cc1ccc(OCC(=O)N(Cc2cccs2)c2c[nH]nc2C)cc1 | 0.4 nM | 10700 | >5 µM | – | – | – |
| CCN(Cc1ccccn1)C(=O)COc1ccc(C)cc1 | 16000 nM | 0.2 | – | – | – | – |
| CCN(Cc1cccs1)C(=O)COc1ccc(C(F)(F)F)cc1 | 236 nM | 18 | – | – | – | – |
| Cc1ccc(OCC(=O)N(Cc2cccs2)c2cn[nH]c2)cc1 | 1.4 nM | 3820 | >5 µM | – | – | – |
| Cc1ccc(OCC(=O)N(Cc2cccs2)c2ccccc2)cc1 | 23 nM | 197 | 15 µM | – | – | – |
| CCN(Cc1cc[nH]c1)C(=O)COc1ccc(C)cc1 | 21800 nM | 0.2 | – | – | – | – |
| Cc1ccc(OCC(=O)N(Cc2cccs2)c2ccncc2)cc1 | 52 nM | 77 | – | – | – | – |
| CCC(C)N(Cc1cccs1)C(=O)COc1ccc(C)cc1 (centres undefined) | 2000 nM | 2 | – | – | – | – |
| CCN(Cc1cccs1)C(=O)C[C@@H](O)c1ccccc1 | – | – | – | Not Active | – | – |
| CCN(Cc1cccs1)C(=O)C[C@H](O)c1ccccc1 | 52000 nM | 0.1 | – | – | – | – |
| Cc1ccc(OCC(=O)N(C)Cc2cccs2)cc1 | 400 nM | 15 | – | – | – | – |
| CCN(Cc1cccn1C)C(=O)COc1ccc(C)cc1 | 21300 nM | 0.3 | – | – | – | – |
| CCN(Cc1nccs1)C(=O)COc1ccc(C)cc1 | 3060 nM | 2 | – | – | – | – |
| CCN(Cc1cccs1)C(=O)COc1ccc2c(c1)CCCC2 | 689 nM | 7 | – | – | – | – |
| Cc1ccc(OCC(=O)N(Cc2cccs2)C2CCCCC2)cc1 | 40000 nM | 0.1 | – | – | – | – |
| Cc1ccc(OCC(=O)N(Cc2cccs2)C2CC2)cc1 | 8 nM | 577 | 5 µM | – | – | – |
| CCN(Cc1cccs1)C(=O)c1cc2cc(C)ccc2s1 | 1600 nM | 3 | – | – | – | – |
| COCCN(Cc1cccs1)C(=O)COc1ccc(C)cc1 | 400 nM | 11 | – | – | – | – |

| Structure (SMILES) | EC50 ([1]; read-out: EC50) | Ratio EC50 [2] | Activity [3] | EC50 ([1]; hek293) | Drug transport [4] | solubility thermodynamic [5] |
| --- | --- | --- | --- | --- | --- | --- |
| Cc1ccc(OCC(=O)N(Cc2cccs2)c2cnccn2)cc1 | 1240 nM | 3 | – | – | – | – |
| Cc1ccc(OC2CCN(Cc3cccs3)C2=O)cc1 (centres undefined) | – | – | – | Not Active | – | – |
| CCN(Cc1ccc(C)s1)C(=O)COc1ccc(C)cc1 | 178 nM | 18 | – | – | – | – |
| CCN(Cc1c[nH]nn1)C(=O)COc1ccc(C)cc1 | 31100 nM | 0.1 | – | – | – | – |
| CCN(Cc1cc[nH]n1)C(=O)COc1ccc(C)cc1 | – | – | – | Not Active | – | – |
| Cc1ccc(OCC(=O)N(CCCO)Cc2cccs2)cc1 | 3000 nM | 1 | – | – | – | – |
| CCN(Cc1ccccc1)C(=O)COc1ccc(C)cc1 | 1880 nM | 2 | – | – | – | – |
| CCN(Cc1ccco1)C(=O)COc1ccc(C)cc1 | 489 nM | 9 | 15 µM | – | – | – |
| O=C(COc1ccc2c(c1)OCO2)N(Cc1cccs1)c1ccn[nH]1 | 0.6 nM | 6340 | – | – | – | – |
| COc1ccc(OCC(=O)N(Cc2cccs2)c2ccn[nH]2)cc1 | – | 1140 | 5 µM | – | – | – |
| O=C(COc1ccc2c(c1)CCC2)N(Cc1cccs1)c1ccn[nH]1 | 0.001 nM | > 1e+06 | 3 µM | – | 5% | 26 µM (≈ 9.19 µg/mL) |
| CCN1C(=O)C(Oc2ccc(C)cc2)C1c1cccs1 (centres undefined) | – | – | – | Active | – | – |
| Cc1ccc(OCC(=O)N(Cc2cccs2)c2ccccn2)cc1 | 200 nM | 25 | 15 µM | – | – | – |
| Cc1ccc2oc(C(=O)N(Cc3cccs3)c3ccn[nH]3)cc2c1 | 40 nM | > 1e+06 | 4 µM | – | – | – |
| CCN(Cc1cccs1)C(=O)COc1ccccc1 | 1400 nM | 4 | – | – | – | – |
| CCN(Cc1cccs1)C(=O)COc1ccc2c(c1)COC2 | 61 nM | 58 | 5 µM | – | 33% | 571 µM (≈ 181 µg/mL) |
| O=C(/C=C/c1ccc2c(c1)OCO2)N(Cc1cccs1)c1ccn[nH]1 | 0.002 nM | > 1e+06 | – | – | – | – |
| Cc1ccc(OCC(=O)N(Cc2cccs2)C(C)C)cc1 | 70 nM | 66 | – | – | – | – |
| Cc1ccc(OCC(=O)N(Cc2cccs2)C(C)(C)C)cc1 | 11000 nM | 0.4 | – | – | – | – |
| Cc1ccc(OCC(=O)N(O)Cc2cccs2)cc1 | 8000 nM | 0.4 | – | – | – | – |
| CCCc1ccc(OCC(=O)N(CC)Cc2cccs2)cc1 | 1810 nM | 3 | – | – | – | – |
